{
  "source": "patent US20160235660A1",
  "about": "“COSMETIC COMPOSITION AND USE THEREOF” (EMS S.A., priority 2015, published 2016)",
  "origin": "cited, not measured here",
  "test_system": "facial melasma",
  "conditions": "hydroquinone 4% vs 0.75% kojic acid cream",
  "data": [
    {"smiles": "Oc1ccc(O)cc1", "note": "[hydroquinone, 1,4-dihydroxybenzene]", "values": [
      {"measurement": "action in the treatment of melasma compared with kojic acid", "result": "superiority"}
    ]}
  ]
}
